# Results as given in ChEMBL document CHEMBL1201862, “PubChem BioAssay data set” (2004).
# Active and inactive are the calls of the source.
# Legend:
# Interleukin-8 = target: T1, Interleukin-8 (Homo sapiens, UniProt P10145); experiment: Dose Response confirmation of uHTS small molecule hits for cystic fibrosis induced NFkb Inhibitors in a PAF-induced IL8 counterscreen.; type: functional; settings: read-out: IC50_Mean
# T1 sequence (P10145 whole entry): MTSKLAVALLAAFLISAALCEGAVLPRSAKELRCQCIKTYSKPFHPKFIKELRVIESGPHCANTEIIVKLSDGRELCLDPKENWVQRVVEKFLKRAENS
# [1] = inhibitors of PGC1a acetylation in cells, dose response, cell-based, cherry-picked samples (AID 720514); type: functional;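 further: potency may reflect raised or lowered acetylation signal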
# [2] = target: Ras and Rab interactor 1/Tyrosine-protein kinase ABL1 (Homo sapiens, UniProt P00519+Q13671); type: functional;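 further: biochemical TR-FRET dose-response test measuring inhibition of binding between Rin1 and Abl proteins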
# Sequence of Ras and Rab interactor 1/Tyrosine-protein kinase ABL1 (P00519 whole entry): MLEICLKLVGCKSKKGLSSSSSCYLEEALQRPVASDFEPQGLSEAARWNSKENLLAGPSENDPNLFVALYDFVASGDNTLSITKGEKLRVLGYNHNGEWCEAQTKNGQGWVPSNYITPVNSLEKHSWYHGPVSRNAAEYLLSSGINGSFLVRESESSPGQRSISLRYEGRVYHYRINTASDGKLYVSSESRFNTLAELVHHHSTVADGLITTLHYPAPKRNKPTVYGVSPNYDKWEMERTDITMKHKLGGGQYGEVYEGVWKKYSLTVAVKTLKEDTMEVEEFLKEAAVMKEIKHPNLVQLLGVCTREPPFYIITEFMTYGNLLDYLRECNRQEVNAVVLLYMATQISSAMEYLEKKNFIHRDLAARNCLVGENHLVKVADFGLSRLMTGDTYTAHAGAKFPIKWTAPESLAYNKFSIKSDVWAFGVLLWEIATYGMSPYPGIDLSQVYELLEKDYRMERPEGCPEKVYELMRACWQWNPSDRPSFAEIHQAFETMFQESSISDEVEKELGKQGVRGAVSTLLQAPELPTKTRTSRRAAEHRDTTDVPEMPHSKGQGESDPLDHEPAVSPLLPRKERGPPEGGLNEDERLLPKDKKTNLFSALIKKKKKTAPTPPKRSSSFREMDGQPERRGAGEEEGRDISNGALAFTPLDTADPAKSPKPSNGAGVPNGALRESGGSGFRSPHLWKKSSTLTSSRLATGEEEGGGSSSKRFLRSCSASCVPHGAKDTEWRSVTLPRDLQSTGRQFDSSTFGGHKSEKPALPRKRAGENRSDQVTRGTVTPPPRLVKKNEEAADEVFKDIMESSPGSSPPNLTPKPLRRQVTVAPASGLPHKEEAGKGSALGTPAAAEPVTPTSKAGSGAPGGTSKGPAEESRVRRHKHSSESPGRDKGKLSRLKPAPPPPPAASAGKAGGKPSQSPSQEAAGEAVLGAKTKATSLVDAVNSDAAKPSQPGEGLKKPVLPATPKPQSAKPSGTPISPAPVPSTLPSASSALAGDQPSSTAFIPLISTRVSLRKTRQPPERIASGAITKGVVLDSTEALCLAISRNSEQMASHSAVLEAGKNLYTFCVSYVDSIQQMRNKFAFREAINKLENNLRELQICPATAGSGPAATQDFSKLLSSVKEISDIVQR
# Sequence of Ras and Rab interactor 1/Tyrosine-protein kinase ABL1 (Q13671 whole entry): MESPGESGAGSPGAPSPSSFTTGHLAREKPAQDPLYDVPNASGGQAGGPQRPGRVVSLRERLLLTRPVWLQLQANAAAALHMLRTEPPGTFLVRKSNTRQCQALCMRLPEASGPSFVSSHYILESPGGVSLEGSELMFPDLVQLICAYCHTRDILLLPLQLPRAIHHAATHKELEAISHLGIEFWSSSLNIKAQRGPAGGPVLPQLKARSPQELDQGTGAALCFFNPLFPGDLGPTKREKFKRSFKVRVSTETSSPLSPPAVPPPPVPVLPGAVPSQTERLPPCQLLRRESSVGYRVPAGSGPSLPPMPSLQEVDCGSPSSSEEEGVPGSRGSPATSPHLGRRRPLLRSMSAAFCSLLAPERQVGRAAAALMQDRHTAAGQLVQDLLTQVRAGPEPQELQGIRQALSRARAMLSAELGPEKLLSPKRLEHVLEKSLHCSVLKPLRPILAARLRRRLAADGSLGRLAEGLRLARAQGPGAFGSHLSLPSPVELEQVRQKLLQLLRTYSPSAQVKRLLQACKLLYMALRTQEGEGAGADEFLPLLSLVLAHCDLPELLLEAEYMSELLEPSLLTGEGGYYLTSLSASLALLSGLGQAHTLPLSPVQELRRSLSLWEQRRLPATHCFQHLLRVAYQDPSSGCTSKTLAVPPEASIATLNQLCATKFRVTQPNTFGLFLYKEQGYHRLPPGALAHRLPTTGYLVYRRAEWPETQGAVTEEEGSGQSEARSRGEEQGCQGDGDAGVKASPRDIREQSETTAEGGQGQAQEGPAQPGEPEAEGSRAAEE
# Cysteine protease ATG4B = target: T2, Cysteine protease ATG4B (Homo sapiens, UniProt Q9Y4P1); type: functional;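 further: Fluorescence-based dose-response confirmation assay measuring inhibition of ATG4B activity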
# T2 sequence (Q9Y4P1 whole entry): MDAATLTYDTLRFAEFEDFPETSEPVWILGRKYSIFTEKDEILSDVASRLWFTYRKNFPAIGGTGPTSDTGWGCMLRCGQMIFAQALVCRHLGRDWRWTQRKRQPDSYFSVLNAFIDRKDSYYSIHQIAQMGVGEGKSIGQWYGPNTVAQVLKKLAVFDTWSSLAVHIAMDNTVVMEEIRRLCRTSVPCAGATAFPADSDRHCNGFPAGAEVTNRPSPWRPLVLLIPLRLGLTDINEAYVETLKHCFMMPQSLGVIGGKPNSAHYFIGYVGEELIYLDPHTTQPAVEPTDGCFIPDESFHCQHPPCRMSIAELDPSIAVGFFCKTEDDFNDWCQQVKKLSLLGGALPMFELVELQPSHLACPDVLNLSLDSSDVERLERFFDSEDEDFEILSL
# Phospholipase A2 = Phospholipase A2 (Homo sapiens, UniProt P04054); type: functional;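 further: confirmatory dose-response counterscreen on phospholipase A2, testing hits that came from an ultra-high-throughput screen for ATG4B inhibitors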
# Sequence of Phospholipase A2 (P04054 whole entry): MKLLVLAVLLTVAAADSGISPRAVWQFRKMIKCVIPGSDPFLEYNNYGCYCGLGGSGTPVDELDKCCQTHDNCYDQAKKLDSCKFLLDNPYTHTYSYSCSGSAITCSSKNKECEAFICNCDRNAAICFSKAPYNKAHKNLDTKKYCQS
# [3] = target: T3, High affinity choline transporter 1 (Homo sapiens, UniProt Q9GZV3); experiment: CHT inhibitors, dose response, cell-based, 5-point CRC, membrane potential dye (AID 504840); type: functional
# T3 sequence (Q9GZV3 whole entry): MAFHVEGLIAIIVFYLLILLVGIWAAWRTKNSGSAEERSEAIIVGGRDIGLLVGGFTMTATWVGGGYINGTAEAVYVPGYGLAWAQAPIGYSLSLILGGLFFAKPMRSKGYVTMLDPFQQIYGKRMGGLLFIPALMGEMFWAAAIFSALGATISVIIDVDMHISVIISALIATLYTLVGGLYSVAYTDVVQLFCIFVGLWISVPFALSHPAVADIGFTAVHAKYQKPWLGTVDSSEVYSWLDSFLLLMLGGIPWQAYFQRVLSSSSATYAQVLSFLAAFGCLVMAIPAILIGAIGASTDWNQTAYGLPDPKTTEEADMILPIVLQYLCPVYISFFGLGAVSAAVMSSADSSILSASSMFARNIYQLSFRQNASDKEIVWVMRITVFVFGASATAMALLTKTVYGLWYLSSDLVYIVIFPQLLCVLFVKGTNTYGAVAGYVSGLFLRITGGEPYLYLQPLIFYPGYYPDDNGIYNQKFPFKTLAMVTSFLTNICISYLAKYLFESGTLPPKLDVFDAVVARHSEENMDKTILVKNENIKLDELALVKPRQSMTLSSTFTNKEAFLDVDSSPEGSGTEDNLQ
# [4] = target: T3, High affinity choline transporter 1; experiment: CHT inhibitors, dose response, cell-based, 10-point CRC, membrane potential dye (AID 588401); type: functional;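 further: membrane potential dye fluorescence of choline-evoked depolarization via CHT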
# [5] = miR-122 activators in hepatoma reporter cells, dose response, cell-based, Huh7 psiCHECK-miR122, Renilla luciferase, cherry-picked (AID 651956); type: functional;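 further: huh7 hepatoma cells stably carrying a psiCHECK-2 miR-122 sensor plasmid; renilla luciferase signal reporting endogenous miR-122 activity after 48 h compound exposure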
# Paired box protein Pax-8 = Paired box protein Pax-8 (Homo sapiens, UniProt Q06710); experiment: inhibitors of PAX8-driven TPO luciferase reporter, dose response, RMG-I cells, cherry-pick (AID 687027); type: functional, cell-based;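 further: luciferase reporter driven by Pax8 target thyroperoxidase promoter measured by SteadyGlo luminescence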
# [6] = inhibitors of CMV-promoter luciferase reporter, dose response, counter-screen for Pax8 inhibitor project, cell-based, HEK293, luminescence, dry powder (AID 743020); type: functional
# [7] = A549 cell cytotoxicity, dose response, cytotoxicity control, plate reader, cherry-pick, antagonist series (AID 743412); type: functional, cell-based
# [8] = HepG2 cell cytotoxicity, dose response, cytotoxicity control, plate reader, cherry-pick, antagonist series (AID 743416); type: functional, cell-based
# [9] = LGR2 antagonists, dose response, cell-based, HEK293, CRE-luciferase reporter, cherry pick, set 2 (AID 743343); type: functional;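 further: transfected cells were stimulated with diluted bursicon conditioned medium after compound addition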
# [10] = MC4R antagonists, dose response, counter-screen for LGR2 antagonist project, cell-based, plate reader, cherry pick (AID 743444); type: functional;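 further: transfected HEK 293 cells stimulated with alpha-MSH peptide; potency of inhibitors of the alpha-MSH evoked signal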
# [11] = HEK293 cell cytotoxicity, dose response, cytotoxicity control, plate reader, cherry-picked samples (AID 743446); type: functional, cell-based
# Fatty acid synthase [12] = target: T4, Fatty acid synthase (Homo sapiens, UniProt P49327); experiment: FAS thioesterase domain inhibitors, dose response, biochemical, endpoint fluorescence intensity, uHTS hits (AID 624327); type: functional;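 further: fluorescence from hydrolysis of an O-methyl fluorescein acyl ester substrate by the enzyme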
# T4 sequence (P49327 whole entry, the tested form may be a part): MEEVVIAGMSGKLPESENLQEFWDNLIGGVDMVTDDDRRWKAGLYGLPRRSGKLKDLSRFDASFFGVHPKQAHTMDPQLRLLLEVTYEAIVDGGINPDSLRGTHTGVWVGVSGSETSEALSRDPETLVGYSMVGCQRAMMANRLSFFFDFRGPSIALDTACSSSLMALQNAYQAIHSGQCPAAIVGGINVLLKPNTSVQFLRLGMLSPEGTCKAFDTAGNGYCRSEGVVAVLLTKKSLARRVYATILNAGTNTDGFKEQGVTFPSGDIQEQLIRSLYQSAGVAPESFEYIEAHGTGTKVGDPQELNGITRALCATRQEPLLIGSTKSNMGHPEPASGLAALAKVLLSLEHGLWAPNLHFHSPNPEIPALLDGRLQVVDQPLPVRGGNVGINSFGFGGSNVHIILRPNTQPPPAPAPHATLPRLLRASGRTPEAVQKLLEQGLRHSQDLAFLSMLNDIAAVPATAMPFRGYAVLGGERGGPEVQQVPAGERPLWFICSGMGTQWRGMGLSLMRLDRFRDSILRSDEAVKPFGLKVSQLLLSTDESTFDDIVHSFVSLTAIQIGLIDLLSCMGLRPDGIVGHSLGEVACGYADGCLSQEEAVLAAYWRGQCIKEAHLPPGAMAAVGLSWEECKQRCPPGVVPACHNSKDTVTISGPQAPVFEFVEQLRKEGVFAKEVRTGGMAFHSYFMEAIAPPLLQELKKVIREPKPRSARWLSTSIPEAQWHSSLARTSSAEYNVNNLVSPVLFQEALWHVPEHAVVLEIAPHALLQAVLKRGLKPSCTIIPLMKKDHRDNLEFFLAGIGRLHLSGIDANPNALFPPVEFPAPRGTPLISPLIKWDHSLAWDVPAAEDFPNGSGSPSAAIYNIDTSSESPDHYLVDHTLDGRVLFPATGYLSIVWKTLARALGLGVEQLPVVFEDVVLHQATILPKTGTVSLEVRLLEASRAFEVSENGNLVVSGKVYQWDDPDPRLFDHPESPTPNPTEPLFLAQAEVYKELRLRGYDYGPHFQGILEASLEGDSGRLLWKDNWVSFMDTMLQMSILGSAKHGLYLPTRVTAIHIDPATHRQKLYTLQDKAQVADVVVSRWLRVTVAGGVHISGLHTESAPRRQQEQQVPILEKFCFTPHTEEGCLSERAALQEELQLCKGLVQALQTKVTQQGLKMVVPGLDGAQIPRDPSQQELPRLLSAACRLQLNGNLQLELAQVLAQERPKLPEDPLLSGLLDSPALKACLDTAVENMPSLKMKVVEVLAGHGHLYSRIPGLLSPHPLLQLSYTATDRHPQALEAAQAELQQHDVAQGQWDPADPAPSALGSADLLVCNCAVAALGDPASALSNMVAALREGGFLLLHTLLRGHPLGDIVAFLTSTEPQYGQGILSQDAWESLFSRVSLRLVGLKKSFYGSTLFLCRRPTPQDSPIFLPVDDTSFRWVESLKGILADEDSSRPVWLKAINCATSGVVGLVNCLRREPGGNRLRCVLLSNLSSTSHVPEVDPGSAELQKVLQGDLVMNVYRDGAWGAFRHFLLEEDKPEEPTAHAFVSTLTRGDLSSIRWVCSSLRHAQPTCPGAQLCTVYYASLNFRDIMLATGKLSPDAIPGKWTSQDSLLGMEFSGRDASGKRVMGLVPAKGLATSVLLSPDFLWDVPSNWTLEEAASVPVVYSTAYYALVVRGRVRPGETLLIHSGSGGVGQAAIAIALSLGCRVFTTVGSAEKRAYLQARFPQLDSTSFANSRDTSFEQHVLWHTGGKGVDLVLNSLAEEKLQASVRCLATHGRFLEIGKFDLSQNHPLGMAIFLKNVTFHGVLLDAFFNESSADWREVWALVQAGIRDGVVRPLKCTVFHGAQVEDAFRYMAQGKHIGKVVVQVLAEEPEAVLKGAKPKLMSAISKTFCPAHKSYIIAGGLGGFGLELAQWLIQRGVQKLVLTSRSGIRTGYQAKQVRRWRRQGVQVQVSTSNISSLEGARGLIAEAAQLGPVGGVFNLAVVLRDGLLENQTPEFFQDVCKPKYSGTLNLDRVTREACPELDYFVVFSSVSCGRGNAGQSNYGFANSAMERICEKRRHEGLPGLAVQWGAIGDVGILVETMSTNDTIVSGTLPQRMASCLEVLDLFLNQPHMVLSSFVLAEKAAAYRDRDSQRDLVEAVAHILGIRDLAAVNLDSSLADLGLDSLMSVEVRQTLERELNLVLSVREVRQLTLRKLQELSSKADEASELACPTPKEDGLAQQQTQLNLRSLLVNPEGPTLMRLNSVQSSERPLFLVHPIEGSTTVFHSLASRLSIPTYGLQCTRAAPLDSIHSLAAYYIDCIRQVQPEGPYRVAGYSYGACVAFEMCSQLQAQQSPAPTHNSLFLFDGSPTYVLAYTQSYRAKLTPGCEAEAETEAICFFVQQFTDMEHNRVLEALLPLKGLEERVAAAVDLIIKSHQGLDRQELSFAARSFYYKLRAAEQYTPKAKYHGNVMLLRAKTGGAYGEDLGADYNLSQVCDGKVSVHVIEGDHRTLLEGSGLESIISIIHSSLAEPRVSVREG
# Fatty acid synthase [13] = target: T4, Fatty acid synthase; experiment: FAS thioesterase domain inhibitors, dose response, biochemical, kinetic fluorescence intensity (AID 624326); type: functional;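 further: rate of fluorescence rise from hydrolysis of a fluorogenic O-methyl fluorescein ester substrate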
# Mu-type opioid receptor = Mu-type opioid receptor (Homo sapiens, UniProt P35372); type: functional, cell-based;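 further: U2OS cells with beta-arrestin recruitment to OPRM1 by beta-gal complementation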
# [14] = target: 5-hydroxytryptamine receptor 2A (Mus musculus, UniProt P35363); type: functional, cell-based;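 further: CHO-K1 cells with tagged receptor and beta-arrestin; agonist potency measured as compound-induced activation of the receptor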
# Sequence of 5-hydroxytryptamine receptor 2A (P35363 whole entry): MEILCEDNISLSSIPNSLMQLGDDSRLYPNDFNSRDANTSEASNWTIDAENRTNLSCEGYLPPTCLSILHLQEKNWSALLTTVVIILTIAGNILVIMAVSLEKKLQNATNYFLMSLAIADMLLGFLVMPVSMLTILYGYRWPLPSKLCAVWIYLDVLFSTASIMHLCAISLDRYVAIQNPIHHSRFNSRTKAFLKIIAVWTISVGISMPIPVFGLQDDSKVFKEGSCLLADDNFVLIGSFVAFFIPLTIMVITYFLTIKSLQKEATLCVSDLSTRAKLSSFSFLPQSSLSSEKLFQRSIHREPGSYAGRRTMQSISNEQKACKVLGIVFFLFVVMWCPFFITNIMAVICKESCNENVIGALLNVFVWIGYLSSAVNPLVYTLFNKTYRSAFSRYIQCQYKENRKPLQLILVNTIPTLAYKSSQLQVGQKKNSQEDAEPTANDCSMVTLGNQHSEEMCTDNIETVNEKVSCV
smiles,measurement,setting,value
Nc1ncnc(NCc2ccc(F)cc2)c1[N+](=O)[O-],IC50,Interleukin-8,> 79 µM (inactive)
same,AC50,[1],3.1 µM (active)
CC[C@]12c3[nH]c4ccc(OC)cc4c3CCN1C(=O)C(CC(=O)NCC13C[C@H]4C[C@@H](C1)C[C@@H](C3)C4)C[C@@H]2C(=O)N1CCN(C(=O)C2CC2)CC1 (stereo partly drawn),IC50,[2],12.9 µM (inactive)
COC(=O)c1c(NC(=O)C2Cc3ccccc3C(=O)O2)sc2c1CCCC2 (stereo not drawn),IC50,Cysteine protease ATG4B,1.62 µM (active)
same,IC50,Phospholipase A2,1.02 µM (active)
CC(=O)OC1CC2(C)/C(=N\O)CCC2C2CCc3cc(O)ccc3C12 (stereo not drawn),IC50,[3],0.953 µM (active)
same,IC50,[4],0.605 µM (active)
COc1ccc(C#Cc2ccc3c(c2)O[C@H](CN(C)C(=O)CN2CCOCC2)[C@H](C)CN([C@H](C)CO)S3(=O)=O)cc1,AC50,[5],12.3 µM (active)
O=C(C[C@H]1C[C@@H]2c3cc(NS(=O)(=O)c4ccc(F)cc4)ccc3O[C@@H]2[C@@H](CO)O1)NCc1ccc(Oc2ccccc2)cc1,AC50,Paired box protein Pax-8,8.32 µM (active)
same,AC50,[6],40.6 µM (active)
same,AC50,[7],19.3 µM (active)
same,AC50,[8],20.9 µM (active)
same,AC50,[9],26 µM (active)
same,AC50,[10],25.6 µM (active)
same,AC50,[11],22.3 µM (active)
COc1cc(C(=O)N/N=C/c2coc3ccc(Cl)cc3c2=O)ccc1O,IC50,Cysteine protease ATG4B,3.35 µM (active)
same,IC50,Phospholipase A2,16.2 µM (active)
same,IC50,Fatty acid synthase [12],18.5 µM (active)
same,IC50,Fatty acid synthase [13],7.45 µM (active)
CNCC(=O)c1ccc(O)c(O)c1 [ADRENALONE],EC50,Mu-type opioid receptor,92.4 µM (inactive)
same,EC50,[14],4.04 µM (active)
CCCCC[C@H](O)/C=C/[C@@H]1[C@@H](C/C=C\CCCC(=O)O)[C@@H](O)C[C@H]1O [DINOPROST TROMETHAMINE],IC50,[3],2.94 µM (active)
same,IC50,[4],2.77 µM (active)
